In US9249131B2, “Modulators of ATP-binding cassette transporters” (Vertex Pharmaceuticals Incorporated, priority 2003, dated 2016):

Target: T1, ΔF508-CFTR (Homo sapiens, UniProt P13569, DEL508-508)
T1 construct: expressed in transfected cells; host or cells: NIH3T3 mouse fibroblasts stably expressing ΔF508-CFTR for the optical, whole-cell and single-channel assays; Fisher rat epithelial (FRT) cells for Ussing chamber follow-up
Assay: Assays for ΔF508-CFTR correction and potentiator properties (membrane potential optical and electrophysiological methods)
Type: cell-based
Conditions: CFTR modulation; for % Activity: % Efficacy; for EC50: tested using the above methods
Excerpt: Assays for Detecting and Measuring ΔF508-CFTR Correction and Potentiator Properties of Compounds
A) Membrane Potential Optical Methods for Assaying ΔF508-CFTR Modulation Properties of Compounds
The optical membrane potential assay utilized voltage-sensitive FRET sensors described by Gonzalez and Tsien (See, Gonzales, J. E. and R. Y. Tsien (1995) “Voltage sensing by fluorescence resonance energy transfer in single cells” Biophys J 69 (4): 1272-80, and Gonzalez, J. E. and R. Y. Tsien (1997) “Improved indicators of cell membrane potential that use fluorescence resonance energy transfer” Chem Biol 4 (4): 269-77) in combination with instrumentation for measuring fluorescence changes such as the Voltage/Ion Probe Reader (VIPR) (See, Gonzalez, J. E., K. Oades, et al. (1999) “Cell-based assays and instrumentation for screening ion-channel targets” Drug Discov Today 4 (9): 431-439).
These voltage sensitive assays are based on the change in fluorescence resonant energy transfer (FRET) between the membrane-soluble, voltage-sensitive dye, DiSBAC2 (3), and a fluorescent phospholipid, CC2-DMPE, which is attached to the outer leaflet of the plasma membrane and acts as a FRET donor. Changes in membrane potential (Vm) cause the negatively charged DiSBAC2(3) to redistribute across the plasma membrane and the amount of energy transfer from CC2-DMPE changes accordingly. The changes in fluorescence emission were monitored using VIPR™ II, which is an integrated liquid handler and fluorescent detector designed to conduct cell-based screens in 96- or 384-well microtiter plates.
To identify small molecules that correct the trafficking defect associated with ΔF508-CFTR; a single-addition HTS assay format was developed. The cells were incubated in serum-free medium for 16 hrs at 37° C. in the presence or absence (negative control) of test compound. As a positive control, cells plated in 384-well plates were incubated for 16 hrs at 27° C. to “temperature-correct” ΔF508-CFTR. The cells were subsequently rinsed 3× with Krebs Ringers solution and loaded with the voltage-sensitive dyes. To activate ΔF508-CFTR, […] and the CFTR potentiator, genistein ([…]), were added along with Cl^−-free medium to each well. The addition of Cl^−-free medium promoted Cl^− efflux in response to ΔF508-CFTR activation and the resulting membrane depolarization was optically monitored using the FRET-based voltage-sensor dyes.
To identify potentiators of ΔF508-CFTR, a double-addition HTS assay format was developed. During the first addition, a Cl^−-free medium with or without test compound was added to each well. After 22 sec, a second addition of Cl^−-free medium containing 2-10 µM forskolin was added to activate ΔF508-CFTR. The extracellular Cl^− concentration following both additions was 28 mM, which promoted Cl^− efflux in response to ΔF508-CFTR activation and the resulting membrane depolarization was optically monitored using the FRET-based voltage-sensor dyes.
• Bath Solution #1: (in mM) NaCl 160, KCl 4.5, CaCl2 2, MgCl2 1, HEPES 10, pH 7.4 with NaOH. • Chloride-free bath solution: Chloride salts in Bath Solution #1 are substituted with gluconate salts. • CC2-DMPE: Prepared as a 10 mM stock solution in DMSO and stored at −20° C. • DiSBAC2(3): Prepared as a 10 mM stock in DMSO and stored at −20° C. Cell Culture
NIH3T3 mouse fibroblasts stably expressing ΔF508-CFTR are used for optical measurements of membrane potential. The cells are maintained at 37° C. in 5% CO2 and 90% humidity in Dulbecco's modified Eagle's medium supplemented with 2 mM glutamine, 10% fetal bovine serum, 1×NEAA, β-ME, 1×pen/strep, and 25 mM HEPES in 175 cm^2 culture flasks. For all optical assays, the cells were seeded at 30,000/well in 384-well matrigel-coated plates and cultured for 2 hrs at 37° C. before culturing at 27° C. for 24 hrs. for the potentiator assay. For the correction assays, the cells are cultured at 27° C. or 37° C. with and without compounds for 16-24 hours.

T1 sequence (P13569 with tags, fused parts or gaps DEL508-508): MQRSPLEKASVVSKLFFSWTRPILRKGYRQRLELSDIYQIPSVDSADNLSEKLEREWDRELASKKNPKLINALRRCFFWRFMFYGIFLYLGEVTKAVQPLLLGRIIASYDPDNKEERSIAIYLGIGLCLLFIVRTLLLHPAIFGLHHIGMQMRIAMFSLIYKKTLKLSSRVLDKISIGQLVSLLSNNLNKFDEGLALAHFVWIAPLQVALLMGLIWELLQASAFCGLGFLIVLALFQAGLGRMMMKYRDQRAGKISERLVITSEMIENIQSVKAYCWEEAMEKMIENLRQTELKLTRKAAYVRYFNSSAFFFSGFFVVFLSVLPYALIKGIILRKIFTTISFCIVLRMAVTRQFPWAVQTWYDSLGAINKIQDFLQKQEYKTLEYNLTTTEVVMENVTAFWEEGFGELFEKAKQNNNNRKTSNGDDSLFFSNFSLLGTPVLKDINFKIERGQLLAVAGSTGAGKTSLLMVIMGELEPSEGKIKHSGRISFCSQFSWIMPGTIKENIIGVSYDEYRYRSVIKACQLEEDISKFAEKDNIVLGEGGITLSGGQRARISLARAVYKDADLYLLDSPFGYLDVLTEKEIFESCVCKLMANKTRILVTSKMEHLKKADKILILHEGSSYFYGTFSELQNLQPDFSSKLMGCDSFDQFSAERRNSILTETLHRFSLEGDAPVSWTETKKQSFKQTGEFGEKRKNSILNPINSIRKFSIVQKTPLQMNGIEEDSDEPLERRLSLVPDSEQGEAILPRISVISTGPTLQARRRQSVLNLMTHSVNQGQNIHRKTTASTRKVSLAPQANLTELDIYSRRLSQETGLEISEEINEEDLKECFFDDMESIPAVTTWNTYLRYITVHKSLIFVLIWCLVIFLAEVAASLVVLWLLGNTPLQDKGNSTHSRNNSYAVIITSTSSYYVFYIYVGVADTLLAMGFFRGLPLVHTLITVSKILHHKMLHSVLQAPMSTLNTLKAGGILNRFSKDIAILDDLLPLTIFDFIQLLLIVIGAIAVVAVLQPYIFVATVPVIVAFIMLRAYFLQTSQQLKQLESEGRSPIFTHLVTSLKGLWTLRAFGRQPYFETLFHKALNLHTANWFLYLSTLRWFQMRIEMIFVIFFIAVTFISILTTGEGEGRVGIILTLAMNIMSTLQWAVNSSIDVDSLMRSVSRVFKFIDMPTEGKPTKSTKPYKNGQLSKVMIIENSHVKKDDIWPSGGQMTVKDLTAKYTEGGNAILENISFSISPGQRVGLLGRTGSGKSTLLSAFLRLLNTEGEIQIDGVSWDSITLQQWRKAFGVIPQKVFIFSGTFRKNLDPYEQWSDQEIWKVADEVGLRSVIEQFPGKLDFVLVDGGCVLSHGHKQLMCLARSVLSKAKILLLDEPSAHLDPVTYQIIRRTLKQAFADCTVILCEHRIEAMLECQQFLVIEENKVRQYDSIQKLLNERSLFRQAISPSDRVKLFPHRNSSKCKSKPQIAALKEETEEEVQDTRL

| SMILES | % Activity | EC50 [µM] |
| --- | --- | --- |
| O=C(Nc1ncc(Cc2ccccc2Cl)s1)C(c1ccc(Cl)cc1)c1ccc(Cl)cc1 [compound 95] | ++ (“++” means between 25% to 100%) | < 10 |
| CCC(C(=O)Nc1ncc(Cc2ccccc2)s1)c1ccccc1 (stereo not shown) [compound 96] | ++ (“++” means between 25% to 100%) | 10 to 25 |
| CCC(C(=O)Nc1ncc(Cc2ccccc2Cl)s1)c1ccccc1 (stereo not shown) [compound 97] | +++ (“+++” means >100%) | < 10 |
| CCC(C)C(C(=O)Nc1ncc(Cc2ccccc2)s1)c1ccccc1 (stereo not shown) [compound 98] | ++ (“++” means between 25% to 100%) | < 10 |
| CCC(C)C(C(=O)Nc1ncc(Cc2ccccc2Cl)s1)c1ccccc1 (stereo not shown) [compound 99] | +++ (“+++” means >100%) | < 10 |
| CCC(C)C(C(=O)Nc1ncc(Cc2ccccc2)o1)c1ccccc1 (stereo not shown) [compound 100] | ++ (“++” means between 25% to 100%) | 10 to 25 |
| O=C(Nc1ncc(Cc2ccccc2)s1)C(c1ccccc1)C1CCCC1 (stereo not shown) [compound 101] | ++ (“++” means between 25% to 100%) | < 10 |
| O=C(Nc1ncc(Cc2ccccc2Cl)s1)C(c1ccccc1)C1CCCC1 (stereo not shown) [compound 102] | +++ (“+++” means >100%) | < 10 |
| CC(C)C(C(=O)Nc1ncc(Cc2ccccc2Cl)s1)c1ccccc1 (stereo not shown) [compound 103] | +++ (“+++” means >100%) | < 10 |
| O=C(Nc1nc(-c2ccccc2)c(-c2ccccc2)s1)c1ccccc1Cl [compound 104] | ++ (“++” means between 25% to 100%) | < 10 |
| COc1cccc(C(=O)Nc2nc(-c3ccccc3)c(-c3ccccc3)s2)c1 [compound 105] | +++ (“+++” means >100%) | < 10 |
| O=C(Nc1nc(-c2ccccc2)c(-c2ccccc2)s1)c1cccc(Cl)c1 [compound 106] | ++ (“++” means between 25% to 100%) | < 10 |
| O=C(Cc1ccccc1)Nc1nc(-c2ccccc2)c(-c2ccccc2)s1 [compound 107] | +++ (“+++” means >100%) | < 10 |
| CCCC(=O)Nc1nc(-c2ccccc2)c(-c2ccccc2)s1 [compound 108] | ++ (“++” means between 25% to 100%) | < 10 |
| CC(C)C(=O)Nc1nc(-c2ccccc2)c(-c2ccccc2)s1 [compound 109] | ++ (“++” means between 25% to 100%) | < 10 |
| CC(C)CC(=O)Nc1nc(-c2ccccc2)c(-c2ccccc2)s1 [compound 110] | +++ (“+++” means >100%) | < 10 |
| O=C(Nc1nc(-c2ccccc2)c(-c2ccccc2)s1)C1CC1 [compound 111] | +++ (“+++” means >100%) | < 10 |
| CC(C)(C)C(=O)Nc1nc(-c2ccccc2)c(-c2ccccc2)s1 [compound 112] | ++ (“++” means between 25% to 100%) | < 10 |
| O=C(Nc1nc(-c2ccccc2)c(-c2ccccc2)s1)C1CCCC1 [compound 113] | ++ (“++” means between 25% to 100%) | < 10 |
| O=C(Nc1nc(-c2ccccc2)c(-c2ccccc2)s1)C1CCCCC1 [compound 114] | ++ (“++” means between 25% to 100%) | < 10 |
| O=C(Nc1nc(-c2ccccc2)c(-c2ccccc2)s1)C1CCCO1 (stereo not shown) [compound 115] | +++ (“+++” means >100%) | < 10 |
| O=C(Nc1nc(-c2ccccc2)c(-c2ccccc2)s1)C1CCOC1 (stereo not shown) [compound 116] | ++ (“++” means between 25% to 100%) | < 10 |

| SMILES | % Activity | EC50 [µM] |
| --- | --- | --- |
| O=C(Nc1ncc(Cc2ccc(Cl)cc2)s1)C(c1ccccc1)C1CCCCC1 (stereo not shown) [compound 117] | +++ (“+++” means >100%) | < 10 |
| O=C(Nc1ncc(Cc2ccc(Cl)cc2)s1)C(c1ccc(Cl)cc1)c1ccc(Cl)cc1 [compound 118] | ++ (“++” means between 25% to 100%) | < 10 |
| CC(C(=O)Nc1ncc(Cc2ccc(Cl)cc2)s1)c1ccccc1 (stereo not shown) [compound 119] | +++ (“+++” means >100%) | < 10 |
| CCC(C(=O)Nc1ncc(Cc2ccc(Cl)cc2)s1)c1ccccc1 (stereo not shown) [compound 120] | ++ (“++” means between 25% to 100%) | < 10 |
| CCC(C)C(C(=O)Nc1ncc(Cc2ccc(Cl)cc2)s1)c1ccccc1 (stereo not shown) [compound 121] | +++ (“+++” means >100%) | < 10 |
| O=C(Nc1ncc(Cc2ccc(Cl)cc2)s1)C(c1ccccc1)C1CCCC1 (stereo not shown) [compound 122] | +++ (“+++” means >100%) | < 10 |
| CC(C)C(C(=O)Nc1ncc(Cc2ccc(Cl)cc2)s1)c1ccccc1 (stereo not shown) [compound 123] | +++ (“+++” means >100%) | < 10 |
| O=C(Nc1ncc(Cc2cccc(Cl)c2)s1)C(c1ccccc1)c1ccccc1 [compound 124] | ++ (“++” means between 25% to 100%) | < 10 |
| O=C(Nc1ncc(Cc2cccc(Cl)c2)s1)C(c1ccc(Cl)cc1)c1ccc(Cl)cc1 [compound 125] | ++ (“++” means between 25% to 100%) | < 10 |
| O=C(Nc1ncc(Cc2cccc(Cl)c2)s1)C1Cc2ccccc21 (stereo not shown) [compound 126] | ++ (“++” means between 25% to 100%) | 25 to 60 |
| CC(C(=O)Nc1ncc(Cc2cccc(Cl)c2)s1)c1ccccc1 (stereo not shown) [compound 127] | ++ (“++” means between 25% to 100%) | < 10 |
| CCC(C(=O)Nc1ncc(Cc2cccc(Cl)c2)s1)c1ccccc1 (stereo not shown) [compound 128] | +++ (“+++” means >100%) | < 10 |
| CCC(C)C(C(=O)Nc1ncc(Cc2cccc(Cl)c2)s1)c1ccccc1 (stereo not shown) [compound 129] | ++ (“++” means between 25% to 100%) | < 10 |
| CC(C)C(C(=O)Nc1ncc(Cc2cccc(Cl)c2)s1)c1ccccc1 (stereo not shown) [compound 130] | +++ (“+++” means >100%) | < 10 |
| O=C(Nc1ncc(Cc2cccc(Cl)c2)s1)C1c2ccccc2Oc2ccccc21 [compound 131] | +++ (“+++” means >100%) | < 10 |
| COc1ccccc1Cc1cnc(NC(=O)C(c2ccccc2)C2CCCCC2)s1 (stereo not shown) [compound 132] | ++ (“++” means between 25% to 100%) | < 10 |
| COc1ccccc1Cc1cnc(NC(=O)C2c3ccccc3-c3ccccc32)s1 [compound 133] | ++ (“++” means between 25% to 100%) | < 10 |
| COc1ccccc1Cc1cnc(NC(=O)C(c2ccc(Cl)cc2)c2ccc(Cl)cc2)s1 [compound 134] | ++ (“++” means between 25% to 100%) | < 10 |
| COc1ccccc1Cc1cnc(NC(=O)C(C)c2ccccc2)s1 (stereo not shown) [compound 135] | ++ (“++” means between 25% to 100%) | < 10 |
| CCC(C(=O)Nc1ncc(Cc2ccccc2OC)s1)c1ccccc1 (stereo not shown) [compound 136] | ++ (“++” means between 25% to 100%) | < 10 |
| CCC(C)C(C(=O)Nc1ncc(Cc2ccccc2OC)s1)c1ccccc1 (stereo not shown) [compound 137] | ++ (“++” means between 25% to 100%) | < 10 |
| COc1ccccc1Cc1cnc(NC(=O)C(c2ccccc2)C(C)C)s1 (stereo not shown) [compound 138] | ++ (“++” means between 25% to 100%) | < 10 |
